Where two headings read alike, the source gives them in different places.
Legend:
[1] = test system: microfilaria of Dirofilaria immitis; experiment: Method C: microfilaria of Dirofilaria immitis motility screen; type: cell-based; details: read-out: inhibition of the microfilaria's motility
[2] = human, Caco-2, pH 6.5
Description: Permeability of Compounds.
An in vitro model utilizing Caco-2/TC7 cells is employed to assess the permeability characteristics of new chemical entities (NCEs).
The permeability studies were performed under standard conditions in the apical to basolateral (A→B) direction with a pH gradient and a BSA gradient (standard apical medium (0.5% BSA at pH 6.5)/standard basal medium (5% BSA at pH 7.4)); conditions that most closely reflect the conditions in the in vivo situation. Samples were deproteinized by the addition of 400 μl acetonitrile to 200 μl sample, followed by a 20-minute centrifugation at 1730 g. Compound solubilisation: compound solutions at final concentrations of 20 μM were prepared following dilutions of stock solutions (starting from 10 mM in DMSO) in HBSS. Final concentration of DMSO was adjusted to 1%. Analytical conditions: Supernatants recovered following centrifugation were analysed by LC/MS/MS using a reverse phase column and the mobile phases delivered at 0.3 ml/minute in a gradient: water (A) and acetonitrile (B) (each with 0.1% formic acid).
Every experiment (n) represents the mean of 3 filters per experiment.

[3] = test system: Haemonchus contortus; experiment: Method A: Haemonchus contortus L1 larval development/motility screen in microtitre plate; type: cell-based; details: 96 h, read-out: motility inhibition
[4] = test system: Trichostrongylus colubriformis; experiment: Method F: Trichostrongylus colubriformis in vivo in Mongolian jirds; details: oral gavage, 5 mg/kg, necropsy 3 days after treatment
Description: (§1) Method to test activity of compounds against Trichostrongylus colubriformis in vivo in Mongolian jirds (Meriones unguiculatus). Mongolian jirds, at least five weeks old, that have been immunosuppressed were artificially infected with ensheathed Trichostrongylus colubriformis third instar larvae. Six days after infection, the jirds were treated by oral gavage with the test compounds, dissolved in a mixture of DMSO/corn oil, at doses of 30 mg/kg. Jirds treated only with the placebo (DMSO/corn oil carrier) served as controls. On day 9 (3 days after treatment) the jirds were euthanized and necropsied for recovery of parasites from the stomach. Efficacy was calculated as the average % reduction in the number of worms in each test group compared with the average number of worms from the control group. Compound 6 provided a 99% reduction in nematode infestation in Mongolian jirds treated by oral gavage with the test article at a dose of 5 mg/kg.

[5] = test system: Haemonchus contortus; experiment: Method E: Haemonchus contortus in vivo in Mongolian jirds; details: oral gavage, 5 mg/kg, necropsy 3 days after treatment
Description: Method to test activity of compounds against Haemonchus contortus in vivo in Mongolian jirds (Meriones unguiculatus).
as §1, with “Mongolian” for “Method to test activity of compounds against Trichostrongylus colubriformis in vivo in Mongolian jirds (Meriones unguiculatus). Mongolian”, “Haemonchus contortus” for “Trichostrongylus colubriformis”, “5” for “30”, “100%” for “99%”

[6] = test system: anthelmintic-resistant isolate of Haemonchus contortus; experiment: Method B: screen against anthelmintic-resistant (benzimidazole-resistant) isolate of Haemonchus contortus; details: benzimidazole-resistant H. contortus isolate
Description: The conditions described in method A were used against an isolate of H. contortus found to be functionally resistant against the benzimidazole class of anthelmintics (e.g. 127-fold resistance to thiabendazole).

SMILES	inhibition at 10 µM ([1]; 24 h) [%]	Papp A→B at 20 μM [2] [×10⁻⁶ cm/s]	inhibition at 5 µM [3] [%]	also measured
O=C(CC1CCCC1)N1CCN(c2cc(O[C@H]3CC[C@H](Nc4ccc([N+](=O)[O-])c(C(F)(F)F)c4)CC3)ccn2)CC1 [Compound 3, 2-Cyclopentyl-1-[4-(4-[[4-[[4-nitro-3-(trifluoromethyl)phenyl]amino]cyclohexyl]oxy]pyridin-2-yl)piperazin-1-yl]ethan-1-one]	≥ 90	2.64	–	–
O=[N+]([O-])c1ccc(N[C@H]2CC[C@H](Oc3cncc(N4CCN(Cc5ccc(F)cc5)CC4)c3)CC2)cc1C(F)(F)F [Compound 4, 4-nitro-N-[4-[(5-[4-[(4-fluorophenyl)methyl]piperazin-1-yl]pyridin-3-yl)oxy]cyclohexyl]-3-(trifluoromethyl)aniline]	≥ 90	1.84	–	inhibition at 1 µM ([1]; 24 h): ≥ 90%
N#Cc1ccc(NC2CCC(Oc3cncc(N4CCN(c5ccc(C(F)(F)F)cn5)CC4)c3)CC2)cc1C(F)(F)F (stereo not drawn) [Compound 6, 4-[[4-[(5-[4-[5-(trifluoromethyl)pyridin-2-yl]piperazin-1-yl]pyridin-3-yl)oxy]cyclohexyl]amino]-2-(trifluoromethyl)benzonitrile]	–	0.64	≥ 90	reduction in nematode infestation [4]: 99%; reduction in nematode infestation [5]: 100%
O=C(CC1CCC1)N1CCN(c2cc(O[C@H]3CC[C@H](Nc4ccc([N+](=O)[O-])c(C(F)(F)F)c4)CC3)ccn2)CC1 [Compound 8]	≥ 90	4.01	≥ 90	–
O=C(OC1CCCC1)N1CCN(c2ccnc(O[C@H]3CC[C@H](Nc4ccc([N+](=O)[O-])c(C(F)(F)F)c4)CC3)c2)CC1 [Compound 9, cyclopentyl 4-[2-[(4-[[4-nitro-3-(trifluoromethyl)phenyl]amino]cyclohexyl)oxy]pyridin-4-yl]piperazine-1-carboxylate]	–	1.08	≥ 90	–
CCCCC(=O)N1CCN(c2cc(O[C@H]3CC[C@H](Nc4ccc([N+](=O)[O-])c(C(F)(F)F)c4)CC3)ccn2)CC1 [Compound 10]	–	5.81	≥ 90	–
O=C(Oc1ccc(F)cc1)N1CCN(c2cncc(O[C@H]3CC[C@H](Nc4ccc([N+](=O)[O-])c(C(F)(F)F)c4)CC3)c2)CC1 [Compound 11]	–	0.55	≥ 90	–
CC(C)(C)OC(=O)N1CCN(c2ccnc(O[C@H]3CC[C@H](Nc4ccc([N+](=O)[O-])c(C(F)(F)F)c4)CC3)c2)CC1 [Compound 13]	–	0.78	≥ 90	inhibition at 5 ppm ([1]; 24 h): ≥ 90%
O=C(CC1CCCCC1)N1CCN(c2cc(O[C@H]3CC[C@H](Nc4ccc([N+](=O)[O-])c(C(F)(F)F)c4)CC3)ccn2)CC1 [Compound 14]	≥ 90	2.28	≥ 90	–
CC(C)(C)OC(=O)N1CCN(c2cncc(O[C@H]3CC[C@H](Nc4ccc([N+](=O)[O-])c(C(F)(F)F)c4)CC3)c2)CC1 [Compound 15]	–	2.07	≥ 90	–
CCCCC(=O)N1CCN(c2ccnc(O[C@H]3CC[C@H](Nc4ccc([N+](=O)[O-])c(C(F)(F)F)c4)CC3)c2)CC1 [Compound 17]	–	3.99	≥ 90	inhibition at 5 ppm ([1]; 24 h): ≥ 90%
O=[N+]([O-])c1ccc(N[C@H]2CC[C@H](Oc3cncc(N4CCN(Cc5ccc(C(F)(F)F)cc5)CC4)c3)CC2)cc1C(F)(F)F [Compound 18]	≥ 90	0.53	≥ 90	–
CCCOC(=O)N1CCN(c2cncc(O[C@H]3CC[C@H](Nc4ccc([N+](=O)[O-])c(C(F)(F)F)c4)CC3)c2)CC1 [Compound 21]	–	3.45	≥ 90	inhibition at 5 ppm ([1]; 24 h): ≥ 90%
O=C(Cc1ccc(F)cc1)N1CCN(c2cncc(O[C@H]3CC[C@H](Nc4ccc([N+](=O)[O-])c(C(F)(F)F)c4)CC3)c2)CC1 [Compound 22]	–	1.57	≥ 90	inhibition at 10 µM ([1]; 10 μM, 24 hours): ≥ 90%
O=C(Cc1ccc(F)cc1)N1CCN(c2ccnc(O[C@H]3CC[C@H](Nc4ccc([N+](=O)[O-])c(C(F)(F)F)c4)CC3)c2)CC1 [Compound 23]	≥ 90	1.09	≥ 90	–
O=C(CCC(F)(F)F)N1CCN(c2cc(O[C@H]3CC[C@H](Nc4ccc([N+](=O)[O-])c(C(F)(F)F)c4)CC3)ccn2)CC1 [Compound 24]	≥ 90	4.46	≥ 90	–
O=[N+]([O-])c1ccc(N[C@H]2CC[C@H](Oc3cncc(N4CCN(CC5CCCC5)CC4)c3)CC2)cc1C(F)(F)F [Compound 27]	≥ 90	2.33	≥ 90	–
CCCC(=O)N1CCN(c2cncc(O[C@H]3CC[C@H](Nc4ccc([N+](=O)[O-])c(C(F)(F)F)c4)CC3)c2)CC1 [Compound 31]	–	10.7	≥ 90	–
CC(C)(C)OC(=O)N1CCN(c2cc(O[C@H]3CC[C@H](Nc4ccc([N+](=O)[O-])c(C(F)(F)F)c4)CC3)ccn2)CC1 [Compound 34]	–	1.77	≥ 90	inhibition at 5 ppm ([1]; 24 h): ≥ 90%
CC(C)(C)CC(=O)N1CCN(c2cncc(O[C@H]3CC[C@H](Nc4ccc([N+](=O)[O-])c(C(F)(F)F)c4)CC3)c2)CC1 [Compound 35]	–	4.99	≥ 90	inhibition at 5 ppm ([1]; 24 h): ≥ 90%
CCCOC(=O)N1CCN(c2ccnc(O[C@H]3CC[C@H](Nc4ccc([N+](=O)[O-])c(C(F)(F)F)c4)CC3)c2)CC1 [Compound 36]	≥ 90	2.41	≥ 90	–
O=[N+]([O-])c1ccc(N[C@H]2CC[C@H](Oc3ccnc(N4CCN(CC5CCCC5)CC4)c3)CC2)cc1C(F)(F)F [Compound 37, 4-nitro-N-[4-([2-[4-(cyclopentylmethyl)piperazin-1-yl]pyridin-4-yl]oxy)cyclohexyl]-3-(trifluoromethyl)]	≥ 90	2.55	≥ 90	–
O=[N+]([O-])c1ccc(N[C@H]2CC[C@H](Oc3ccc(N4CCN(c5ccc6cc(C(F)(F)F)ccc6n5)CC4)nc3)CC2)cc1C(F)(F)F [Compound 102]	–	0.01	–	–
N#Cc1ccc(N[C@H]2CC[C@H](Oc3cc(N4CCN(C(=O)CC5CCCC5)CC4)ccn3)CC2)cc1C(F)(F)F [Compound 183]	≥ 90	–	≥ 90	–
O=C(CC1CCCC1)N1CCN(c2cc(O[C@H]3CC[C@H](Nc4ccc(S(=O)(=O)C(F)(F)F)cc4)CC3)ccn2)CC1 [Compound 188]	≥ 90	–	≥ 90	–
O=C(OC1CCCC1)N1CCN(c2cncc(O[C@H]3CC[C@H](Nc4ccc([N+](=O)[O-])c(C(F)(F)F)c4)CC3)c2)CC1 [Compound 196, cyclopentyl 4-(5-[[4-[[4-nitro-3-(trifluoromethyl)phenyl]amino]cyclohexyl]oxy]pyridin-3-yl)piperazine-1-carboxylate]	–	–	≥ 90	inhibition at 5 ppm ([1]; 24 h): ≥ 90%
c1ccc2[nH]c(-c3cscn3)nc2c1 [thiabendazole]	–	–	–	resistance of the isolate to thiabendazole [6]: 127 fold
